The text below walks through data of patent US20250109135A1, “NOVEL ISOINDOLINONE DERIVATIVE COMPOUNDS AS CASPASE INHIBITORS” (INNOVO THERAPEUTICS INC., priority 2022, published 2025).

The term inhibition denotes the percentage by which the read-out fell short of the control. A low value points to little suppression.

Assay [1] deals with Secreted IL-1β in THP-1 cells. Description: Interleukin-1β inhibitory activity in human monocytic cells THP-1 (ELISA). The format is cell-based. To be noted: compound 100 nM, PMA-differentiated THP-1, LPS 10 μg/ml then 5 mM ATP, 24 h. The protocol:
Caspase-1 is known as […] (ICE). Activated Caspase-1 is involved in the cleavage of pro-form IL-1β to produce the mature form, which is then secreted to induce inflammation. Therefore, the compounds identified in Experimental example 1 were tested to determine if their Caspase-1 inhibitory activity affected the production of […].
THP-1 (ATCC) cells were cultured in RPMI 1640 (Hyclone) growth medium comprising 10% Fetal bovine serum (FBS, Gibco) and antibiotics (100 U/ml Penicillin, 0.1 mg/ml Streptomycin, Cytiva) under 37° C., 5% CO2 conditions. Cultured THP-1 cells were seeded in growth medium to a concentration of 3×10^5 cells/well in 24-well plates (Celvest) and then treated with 1 μM Phorbol 12-myristate 13-acetate (PMA) (Sigma) for 24 hours to induce differentiation. Differentiated THP-1 were pre treated with 10 μg/ml Lipopolysaccharide (LPS, from E. coli 0111:B4 (InvivoGen)) in serum free RPMI 1640 medium for 24 hours to induce an inflammatory response. After removal of LPS, the compounds were pretreated for 1 h at a concentration of 100 nM using the same medium, followed by the addition of 5 mM ATP (InvivoGen) and incubation for 24 h in an incubator. The treated medium was collected and centrifuged, and IL-1β was quantified using an Enzyme linked immunoassay kit (ELISA kit, R&D system), and absorbance was measured at 450 nm using a CLARIOstar Plus spectrometer. Inhibitory activity was denoted as a if it was 50% or more, b if it was 30% or more but less than 50%, c if it was 10% or more but less than 30%, and d if it was less than 10%.
A general note: An ELISA detects its analyte on a solid surface through an enzyme-linked reagent.

In assay [2] the target is T1, recombinant human Caspase-1 (Homo sapiens, UniProt P29466).
T1 construct: purchased Enzo life science
T1 sequence (P29466 120-297 limits assumed): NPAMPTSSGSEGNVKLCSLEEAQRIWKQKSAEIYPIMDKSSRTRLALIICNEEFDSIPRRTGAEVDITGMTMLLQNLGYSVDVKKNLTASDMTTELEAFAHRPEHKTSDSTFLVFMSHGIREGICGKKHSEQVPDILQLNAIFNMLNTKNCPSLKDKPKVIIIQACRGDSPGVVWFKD
T1 sequence (P29466 317-404 limits assumed): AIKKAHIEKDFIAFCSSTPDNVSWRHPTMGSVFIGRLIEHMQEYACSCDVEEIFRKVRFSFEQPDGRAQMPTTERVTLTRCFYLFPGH
Description: Caspase-1 inhibitory activity, fluorescent substrate Ac-YVAD-AFC. Type of assay: biochemical. The protocol: To determine the Caspase-1 inhibitory activity of the compounds of the present invention prepared in Example, Caspase-1 activity was measured using a substrate with a fluorescent dye attached to it. […] The compound was dissolved in DMSO and stored at −20° C. Enzymatic reactions were carried out in a buffer comprising 50 mM HEPES (pH 8.0), 50 mM KCl, 200 mM NaCl, 10 mM DTT, 0.1% CHAPS (w/v). Enzyme inactivation was measured in the presence of different concentrations of the compound using the fluorescent substrate N-Acetyl-Tyr-Val-Ala-Asp-7-amido-4-trifluoromethylcoumarin (Ac-YVAD-AFC) (Sigma) at a concentration of 50 μM and 1 unit of recombinant human Caspase-1 (Enzo life science). A CLARIOstar Plus spectrometer (BMG Labtech) was used to measure the reaction rate as a function of time in the 400/505 nm (Ex/Em) wavelength band. […] If kobs/[I] is 20 or more, it is denoted as A, if it is 10 or more but less than 20, it is denoted as B, if it is 1 or more but less than 10, it is denoted as C, and if it is less than 1, it is denoted as D.
In the above equation, At means the enzyme reaction rate at time t (min), and Amax means the maximum reaction rate.

Setting [3] is: pH 8, 1 unit recombinant human Caspase-1, 50 μM Ac-YVAD-AFC, read-out: kobs/[I] Caspase-1.
Where [4] appears, read: pH 8, read-out: kobs/[I] Caspase-1.

Where two headings read alike, the source gives them in different places.

In turn, `CCC(C(=O)NC(CC(=O)O)C(=O)CF)N1Cc2ccc(C3=CCN(S(C)(=O)=O)CC3)cc2C1=O` (stereo not shown) [Compound 7, 5-fluoro-3-(2-(6-(1-(methylsulfonyl)-1,2,3,6-tetrahydropyridin-4-yl)-1-oxoisoindolin-2-yl)butanamido)-4-oxopentanoic acid] came in with an inhibition at 0.1 µM in assay [1] of less than 10%. For the same compound, the kinact/KI in assay [2] (setting [3]) lay within 0.0167 to 0.167 M⁻¹ s⁻¹. For `CCC(C(=O)NC(CC(=O)O)C(=O)CF)N1Cc2ccc(Nc3cccc4ccccc34)cc2C1=O` (stereo not shown) [Compound 11, 5-fluoro-3-(2-(6-(naphthalen-1-ylamino)-1-oxoisoindolin-2-yl)butanamido)-4-oxopentanoic acid], in that order: 30 to 50% and less than 0.0167 M⁻¹ s⁻¹. For `CCC(C(=O)NC(CC(=O)O)C(=O)CF)N1Cc2ccc(-c3ccc(S(C)(=O)=O)cc3F)cc2C1=O` (stereo not shown) [Compound 12, 5-fluoro-3-(2-(6-(2-fluoro-4-(methylsulfonyl)phenyl)-1-oxoisoindolin-2-yl)butanamido)-4-oxopentanoic acid], in that order: 10 to 30% and 0.0167 to 0.167 M⁻¹ s⁻¹. In the same order, the values of `CCC(C(=O)NC(CC(=O)O)C(=O)CF)N1Cc2ccc(-c3ccc(C(F)(F)F)cc3)cc2C1=O` (stereo not shown) [Compound 14, 5-fluoro-4-oxo-3-(2-(1-oxo-6-(4-(trifluoromethyl)phenyl)isoindolin-2-yl)butanamido)pentanoic acid] are less than 10% and 0.0167 to 0.167 M⁻¹ s⁻¹. In assay [1], `CCC(C(=O)NC(CC(=O)O)C(=O)CF)N1Cc2ccc(C3=CCOCC3)cc2C1=O` (stereo not shown) [Compound 15, 3-(2-(6-(3,6-dihydro-2H-pyran-4-yl)-1-oxoisoindolin-2-yl)butanamido)-5-fluoro-4-oxopentanoic acid] gave an inhibition at 0.1 µM of less than 10%. Also, the kinact/KI in assay [2] (setting [3]) was less than 0.0167 M⁻¹ s⁻¹.

Consider `CCC(C(=O)NC(CC(=O)O)C(=O)CF)N1Cc2ccc(-c3ccc(C(=O)O)cc3)cc2C1=O` (stereo not shown) [Compound 17, 4-(2-(1-((1-carboxy-4-fluoro-3-oxobutan-2-yl)amino)-1-oxobutan-2-yl)-3-oxoisoindolin-5-yl)benzoic acid], for which the inhibition at 0.1 µM in assay [1] is 10 to 30%. For the same compound, the kinact/KI in assay [2] (setting [3]) lay in the range of 0.0167 to 0.167 M⁻¹ s⁻¹. In the same order, the values of `CCC(C(=O)NC(CC(=O)O)C(=O)CF)N1Cc2ccc(N3CCN(c4nsc5ccccc45)CC3)cc2C1=O` (stereo not shown) [Compound 19, 3-(2-(6-(4-(benzo[d]isothiazol-3-yl)piperazin-1-yl)-1-oxoisoindolin-2-yl)butanamido)-5-fluoro-4-oxopentanoic acid] are less than 10% and less than 0.0167 M⁻¹ s⁻¹. The compound `CCC(C(=O)NC(CC(=O)O)C(=O)CF)N1Cc2ccc(-c3ccc(C(F)(F)F)nc3)cc2C1=O` (stereo not shown) [Compound 20, 5-fluoro-4-oxo-3-(2-(1-oxo-6-(6-(trifluoromethyl)pyridin-3-yl)isoindolin-2-yl)butanamido)pentanoic acid] returned an inhibition at 0.1 µM in assay [1] of 10 to 30%. The kinact/KI in assay [2] (setting [3]) was 0.0167 to 0.167 M⁻¹ s⁻¹. On to `CCC(C(=O)NC(CC(=O)O)C(=O)CF)N1Cc2ccc(-c3cnc(N)nc3)cc2C1=O` (stereo not shown) [Compound 21], for which the inhibition at 0.1 µM in assay [1] fell in the range of 30 to 50%. Also, the kinact/KI in assay [2] (setting [3]) was 0.0167 to 0.167 M⁻¹ s⁻¹. `CCC(C(=O)NC(CC(=O)O)C(=O)CF)N1Cc2ccc(-c3ccnc(N)c3)cc2C1=O` (stereo not shown) [Compound 23, 3-(2-(6-(2-aminopyridin-4-yl)-1-oxoisoindolin-2-yl)butanamido)-5-fluoro-4-oxopentanoic acid]: the inhibition at 0.1 µM in assay [1] was less than 10%. In assay [2] (setting [3]), the kinact/KI is 0.0167 to 0.167 M⁻¹ s⁻¹. In the same order, the values of `CCC(C(=O)NC(CC(=O)O)C(=O)CF)N1Cc2ccc(-c3cnn(C)c3)cc2C1=O` (stereo not shown) [Compound 24, 5-fluoro-3-(2-(6-(1-methyl-1H-pyrazol-4-yl)-1-oxoisoindolin-2-yl)butanamido)-4-oxopentanoic acid] are 10 to 30% and 0.0167 to 0.167 M⁻¹ s⁻¹. As for `CCC(C(=O)NC(CC(=O)O)C(=O)CF)N1Cc2ccc(-c3ccn(C)n3)cc2C1=O` (stereo not shown) [Compound 25, 5-fluoro-3-(2-(6-(1-methyl-1H-pyrazol-3-yl)-1-oxoisoindolin-2-yl)butanamido)-4-oxopentanoic acid], the inhibition at 0.1 µM in assay [1] is 10 to 30%. Moreover, the kinact/KI in assay [2] (setting [3]) is 0.0167 to 0.167 M⁻¹ s⁻¹. For `CCC(C(=O)NC(CC(=O)O)C(=O)CF)N1Cc2ccc(-c3ccsc3)cc2C1=O` (stereo not shown) [Compound 28, 5-fluoro-4-oxo-3-(2-(1-oxo-6-(thiophen-3-yl)isoindolin-2-yl)butanamido)pentanoic acid], in that order: 10 to 30% and 0.0167 to 0.167 M⁻¹ s⁻¹.

In assay [1], `CCC(C(=O)NC(CC(=O)O)C(=O)CF)N1Cc2ccc(-c3ccnc4ccccc34)cc2C1=O` (stereo not shown) [Compound 31, 5-fluoro-4-oxo-3-(2-(1-oxo-6-(quinolin-4-yl)isoindolin-2-yl)butanamido)pentanoic acid] registered an inhibition at 0.1 µM of less than 10%. Moreover, the kinact/KI in assay [2] (setting [3]) lay in the range of 0.0167 to 0.167 M⁻¹ s⁻¹. For `CCC(C(=O)NC(CC(=O)O)C(=O)CF)N1Cc2ccc(-c3ccc4scnc4c3)cc2C1=O` (stereo not shown) [Compound 32, 3-(2-(6-(benzo[d]thiazol-5-yl)-1-oxoisoindolin-2-yl)butanamido)-5-fluoro-4-oxopentanoic acid], in that order: less than 10% and 0.0167 to 0.167 M⁻¹ s⁻¹.

Consider `C[C@@H](C(=O)NC(CC(=O)O)C(=O)CF)N1Cc2ccc(N3CCCC3)cc2C1=O` (stereo partly shown) [Compound 46, 5-fluoro-4-oxo-3-(2-(1-oxo-6-(pyrrolidin-1-yl)isoindolin-2-yl)propanamido)pentanoic acid], for which, in assay [2] (setting [4]), the kinact/KI was less than 0.0167 M⁻¹ s⁻¹. With `C[C@@H](C(=O)NC(CC(=O)O)C(=O)CF)N1Cc2ccc(-c3ccc4[nH]c(=O)[nH]c4c3)cc2C1=O` (stereo partly shown) [Compound 47, 5-fluoro-4-oxo-3-(2-(1-oxo-6-(2-oxo-2,3-dihydro-1H-benzo[d]imidazol-5-yl)isoindolin-2-yl)propanamido)pentanoic acid], in assay [2] (setting [4]), the kinact/KI is 0.0167 to 0.167 M⁻¹ s⁻¹.

`C[C@@H](C(=O)NC(CC(=O)O)C(=O)CF)N1Cc2ccc(-c3ccc4c(c3)OCCO4)cc2C1=O` (stereo partly shown) [Compound 48, 3-(2-(6-(2,3-dihydrobenzo[b][1,4]dioxin-6-yl)-1-oxoisoindolin-2-yl)propanamido)-5-fluoro-4-oxopentanoic acid]: the kinact/KI in assay [2] (setting [3]) is less than 0.0167 M⁻¹ s⁻¹. Still for that read-out and setting: for `C[C@@H](C(=O)NC(CC(=O)O)C(=O)CF)N1Cc2ccc(-c3coc4ccccc34)cc2C1=O` (stereo partly shown) [Compound 49, 3-(2-(6-(benzofuran-3-yl)-1-oxoisoindolin-2-yl)propanamido)-5-fluoro-4-oxopentanoic acid] the value was 0.167 to 0.333 M⁻¹ s⁻¹. Regarding `CC[C@@H](C(=O)NC(CC(=O)O)C(=O)CF)N1Cc2cc(N3CCn4cc(C(F)(F)F)nc4C3)ccc2C1=O` (stereo partly drawn) [Compound 62, 5-fluoro-4-oxo-3-((S)-2-(1-oxo-5-(2-(trifluoromethyl)-5,6-dihydroimidazo[1,2-a]pyrazin-7(8H)-yl)isoindolin-2-yl)butanamido)pentanoic acid], the kinact/KI in assay [2] (setting [4]) is less than 0.0167 M⁻¹ s⁻¹.

For the compound `CC[C@@H](C(=O)NC(CC(=O)O)C(=O)CF)N1Cc2cc(N3CCN(c4nsc5ccccc45)CC3)ccc2C1=O` (stereo partly drawn) [Compound 63, 3-((S)-2-(5-(4-(benzo[d]isothiazol-3-yl)piperazin-1-yl)-1-oxoisoindolin-2-yl)butanamido)-5-fluoro-4-oxopentanoic acid], in assay [2] (setting [4]), the kinact/KI is less than 0.0167 M⁻¹ s⁻¹. Regarding `CC[C@@H](C(=O)NC(CC(=O)O)C(=O)CF)N1Cc2cc(N3CCCC3)ccc2C1=O` (stereo partly drawn) [Compound 64, 5-fluoro-4-oxo-3-((S)-2-(1-oxo-5-(pyrrolidin-1-yl)isoindolin-2-yl)butanamido)pentanoic acid], the kinact/KI in assay [2] (setting [4]) is less than 0.0167 M⁻¹ s⁻¹.
